The source of these data is US10940139B2, “Compounds that interact with the Ras superfamily for the treatment of cancers, inflammatory diseases, rasopathies, and fibrotic disease” (Shy Therapeutics LLC, priority 2017, dated 2021).

Molecules are shown by their SMILES.

One assay deals with KRas G12D mutant protein (Homo sapiens (Human), UniProt P01116, G12D). The assay is described as follows: Ras GTP binding domain inhibition assay (labeled GTP). Particulars: at 20 μM; read-out: KRas G12D % Inh.
The target in assay [1] is KRas G12D/Q61H double mutant (Homo sapiens (Human), UniProt P01116, G12D/Q61H). Described as above. Particulars: at 20 μM; read-out: KRas G12D Q61H % Inh. Summed up: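 Fluorescence read-out of Cy3-/Cy5-GTP remaining bound to nickel-immobilized His-KRas after washes. Protein was coated overnight at 4° C, then exposed to compound for 3 h at room temperature before a 45 min labeled-GTP incubation.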

A further assay deals with Rac-1 (Homo sapiens (Human), UniProt P63000). The assay is described as follows: Rac inhibition assay (labeled GTP). The class given is binding. The following applies: read-out: Rac-1 % Inh.
In the next assay the target is Rho-A (Homo sapiens (Human), UniProt P61586). The assay is described as follows: Rho inhibition assay (labeled GTP). The class given is binding. The following applies: read-out: Rho-A % Inh.
Chain of Rho-A (P61586 whole entry): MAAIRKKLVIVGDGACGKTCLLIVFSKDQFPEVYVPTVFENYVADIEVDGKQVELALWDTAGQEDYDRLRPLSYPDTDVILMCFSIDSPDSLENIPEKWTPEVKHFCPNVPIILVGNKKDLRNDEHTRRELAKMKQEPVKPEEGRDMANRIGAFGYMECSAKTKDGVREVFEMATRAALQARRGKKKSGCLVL

Chain of KRas G12D/Q61H double mutant (P01116-2 other isoform, or with tags, fused parts or gaps G12D/Q61H): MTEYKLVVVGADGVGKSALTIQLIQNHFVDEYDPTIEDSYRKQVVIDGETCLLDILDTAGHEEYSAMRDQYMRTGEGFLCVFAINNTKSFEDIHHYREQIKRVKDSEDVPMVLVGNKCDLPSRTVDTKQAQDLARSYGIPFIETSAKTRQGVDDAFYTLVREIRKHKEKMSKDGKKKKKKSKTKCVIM
Chain of KRas G12D mutant protein (P01116-2 other isoform, or with tags, fused parts or gaps G12D): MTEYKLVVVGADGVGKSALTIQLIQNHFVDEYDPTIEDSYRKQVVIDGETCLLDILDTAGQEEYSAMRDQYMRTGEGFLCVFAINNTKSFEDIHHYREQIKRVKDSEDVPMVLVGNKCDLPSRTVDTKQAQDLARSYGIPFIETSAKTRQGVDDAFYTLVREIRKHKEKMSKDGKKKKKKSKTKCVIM

On to `Cc1c(C(=O)O)sc2c(O)nc(-c3ccccn3)nc12` [drawing 3794], for which the inhibition at 20 µM on KRas G12D mutant protein lay in the range of 25 to 50%; in assay [1] it was 51 to 75%; on Rac-1, 76 to 100%; at Rho-A, 51 to 75%.

Take `O=C(CCc1nn[nH]n1)Nc1nc(-c2ccccn2)nc2sccc12` [drawing 3762]: the inhibition at 20 µM was in the range of 51 to 75% on KRas G12D mutant protein, 51 to 75% in assay [1], 76 to 100% on Rac-1 and 76 to 100% on Rho-A.

Consider `CC(C)(O)c1ccc(-c2csc3c(O)nc(-c4ccccn4)nc23)c(F)c1` [drawing 3752], for which the inhibition at 20 µM at KRas G12D mutant protein was 51 to 75%; in assay [1], 51 to 75%; at Rac-1, 76 to 100%; at Rho-A, 51 to 75%.

On to `Nc1nc(-c2ccccn2)nc2c(-c3ccccc3)csc12` [drawing 3731], for which the inhibition at 20 µM on KRas G12D mutant protein was 25 to 50%; in assay [1], 25 to 50%; on Rac-1 it was 51 to 75%; on Rho-A it was 51 to 75%.

With `COc1ccc(CCC(=O)Nc2nc(-c3ccccn3)nc3sccc23)cn1` [drawing 3812], the inhibition at 20 µM was 51 to 75% on KRas G12D mutant protein, 51 to 75% in assay [1], 76 to 100% on Rac-1 and 76 to 100% at Rho-A.

Regarding `COc1cccc(C2CN(C(=O)c3csc4c(O)nc(-c5ccccn5)nc34)CCN2)c1` (stereo not shown) [drawing 3662], the inhibition at 20 µM at KRas G12D mutant protein was in the range of 51 to 75%; in assay [1], 25 to 50%; on Rac-1 it was 76 to 100%; at Rho-A, 76 to 100%.

Take `Oc1nc(-c2ccccn2)nc(Oc2cccc(C(F)(F)F)c2)c1O` [drawing 3876]: the inhibition at 20 µM (on KRas G12D mutant protein; in assay [1]; on Rac-1; at Rho-A) was 51 to 75% in each case.

Take `OCC1(c2ccc(-c3nc(-c4ccccn4)nc(O)c3Oc3ccccc3)cc2)CC1` [drawing 3852]: the inhibition at 20 µM lay in the range of 25 to 50% at KRas G12D mutant protein, 51 to 75% in assay [1], 51 to 75% at Rac-1 and 76 to 100% at Rho-A.

`O=C(COCc1ccnc(O)c1)Nc1nc(-c2ccccn2)nc2sccc12` [drawing 3729]: the inhibition at 20 µM on KRas G12D mutant protein lay within 25 to 50%; in assay [1] it was 51 to 75%; on Rac-1, 51 to 75%; at Rho-A it was 51 to 75%.

Turning to `CNC(=O)c1ccc(-c2csc3c(O)nc(-c4ccccn4)nc23)cc1C` [drawing 3757], the inhibition at 20 µM lay within 25 to 50% at KRas G12D mutant protein, 25 to 50% in assay [1], 51 to 75% on Rac-1 and 51 to 75% on Rho-A.

For `Cc1sc2c(O)nc(-c3ccccn3)nc2c1C(=O)N1CCN(c2ccccc2)CC1C` (stereo not shown) [drawing 3828], the inhibition at 20 µM (at KRas G12D mutant protein; in assay [1]; on Rac-1; at Rho-A) was 51 to 75% in each case.

As to `COc1cnc(-c2ccccn2)nc1O` [drawing 3787], the inhibition at 20 µM is 51 to 75% on KRas G12D mutant protein, 51 to 75% in assay [1], 76 to 100% on Rac-1 and 76 to 100% on Rho-A.

As for `Oc1nc(-c2ccccn2)nc2c(-c3ccc4c(c3)OCO4)csc12` [drawing 3751], the inhibition at 20 µM at KRas G12D mutant protein lay in the range of 51 to 75%; in assay [1], 51 to 75%; on Rac-1, 76 to 100%; on Rho-A, 51 to 75%.

Turning to `Cc1sc2c(O)nc(-c3ccccn3)nc2c1-c1cccnc1` [drawing 3786], the inhibition at 20 µM is 51 to 75% at KRas G12D mutant protein, 25 to 50% in assay [1], 51 to 75% on Rac-1 and 25 to 50% on Rho-A.

Regarding `COc1ccc(F)cc1-c1csc2c(O)nc(-c3ccccn3)nc12` [drawing 3746], the inhibition at 20 µM (at KRas G12D mutant protein; in assay [1]; on Rac-1; on Rho-A) was 51 to 75% each time.

`COc1cnc(-c2cn(C)cn2)nc1O` [drawing 3815]: the inhibition at 20 µM on KRas G12D mutant protein was in the range of 51 to 75%; in assay [1], 51 to 75%; at Rac-1 it was 76 to 100%; on Rho-A, 76 to 100%.

For `CC(C)c1csc2c(O)nc(-c3ccccn3)nc12` [drawing 3806], the inhibition at 20 µM (at KRas G12D mutant protein; in assay [1]; at Rac-1; at Rho-A) was 51 to 75% in each case.

Take `O=C(c1cc2nc(-c3ccccn3)nc(O)c2s1)N1CCN(c2ccccc2)CC1` [drawing 3713]: the inhibition at 20 µM on KRas G12D mutant protein fell in the range of 51 to 75%; in assay [1], 51 to 75%; at Rac-1 it was 76 to 100%; on Rho-A, 76 to 100%.

In the case of `COc1ccccc1-c1csc2c(O)nc(-c3ccccn3)nc12` [drawing 3742], the inhibition at 20 µM was 51 to 75% at KRas G12D mutant protein, 25 to 50% in assay [1], 76 to 100% at Rac-1 and 51 to 75% at Rho-A.

As to `CC(C)Oc1cnc(-c2ccccn2)nc1O` [drawing 3800], the inhibition at 20 µM at KRas G12D mutant protein lay in the range of 51 to 75%; in assay [1], 51 to 75%; at Rac-1 it was 76 to 100%; at Rho-A, 76 to 100%.

Take `Oc1nc(-c2ccccn2)nc2cc(-c3ccccc3)sc12` [drawing 3880]: the inhibition at 20 µM at KRas G12D mutant protein is 51 to 75%; in assay [1], 51 to 75%; at Rac-1, 25 to 50%; at Rho-A, 51 to 75%.

On to `Oc1nc(-c2ccccn2)nc2c(-c3ccccn3)csc12` [drawing 3768], for which the inhibition at 20 µM at KRas G12D mutant protein lay within 25 to 50%; in assay [1] it was 1 to 25%; at Rac-1, 51 to 75%; at Rho-A, 51 to 75%.

`O=C(c1csc2c(O)nc(-c3ccccn3)nc12)N1CCC(c2ccncc2)C1` (stereo not shown) [drawing 3711]: the inhibition at 20 µM was 51 to 75% at KRas G12D mutant protein, 51 to 75% in assay [1], 51 to 75% on Rac-1 and 76 to 100% at Rho-A.

Regarding `Nc1cccc(-c2csc3c(O)nc(-c4ccccn4)nc23)n1` [drawing 3832], the inhibition at 20 µM at KRas G12D mutant protein was 51 to 75%; in assay [1], 51 to 75%; at Rac-1, 76 to 100%; at Rho-A, 76 to 100%.

Take `COc1ccnc(-c2nc(O)c3ccsc3n2)c1` [drawing 3627]: the inhibition at 20 µM on KRas G12D mutant protein lay in the range of 51 to 75%; in assay [1], 51 to 75%; at Rac-1, 76 to 100%; at Rho-A, 51 to 75%.

Turning to `COc1ccnc(-c2nc(O)c3c(Cl)csc3n2)c1` [drawing 3689], the inhibition at 20 µM on KRas G12D mutant protein was in the range of 51 to 75%; in assay [1] it was 51 to 75%; on Rac-1 it was 76 to 100%; at Rho-A, 76 to 100%.

In the case of `O=S1(=O)CCN(Cc2cccc(-c3csc4c(O)nc(-c5ccccn5)nc34)c2)CC1` [drawing 3736], the inhibition at 20 µM at KRas G12D mutant protein lay within 51 to 75%; in assay [1], 51 to 75%; at Rac-1, 76 to 100%; at Rho-A, 76 to 100%.

As to `Cc1cc2nc(-c3ccccn3)nc(N)c2s1` [drawing 3708], the inhibition at 20 µM was 51 to 75% on KRas G12D mutant protein, 51 to 75% in assay [1], 76 to 100% on Rac-1 and 76 to 100% on Rho-A.

For `CN(C)Cc1ccc(F)c(-c2csc3c(O)nc(-c4ccccn4)nc23)c1` [drawing 3773], the inhibition at 20 µM at KRas G12D mutant protein fell in the range of 51 to 75%; in assay [1], 25 to 50%; at Rac-1 it was 51 to 75%; on Rho-A, 76 to 100%.

As for `Oc1nc(-c2ccccn2)nc2c(-c3cc(F)cc(F)c3)csc12` [drawing 3772], the inhibition at 20 µM (on KRas G12D mutant protein; in assay [1]; at Rac-1; on Rho-A) was 51 to 75% each time.

Take `Oc1nc(-c2ccccn2)nc2c(-c3cccc4c3OCO4)csc12` [drawing 3721]: the inhibition at 20 µM at KRas G12D mutant protein fell in the range of 25 to 50%; in assay [1] it was 51 to 75%; on Rac-1, 51 to 75%; at Rho-A, 51 to 75%.

In the case of `Cc1nn(C(C)C)cc1-c1csc2c(O)nc(-c3ccccn3)nc12` [drawing 3825], the inhibition at 20 µM is 51 to 75% on KRas G12D mutant protein, 51 to 75% in assay [1], 76 to 100% at Rac-1 and 76 to 100% at Rho-A.

For `Oc1nc(-c2ccccn2)nc2c(-c3ccsc3)csc12` [drawing 3747], the inhibition at 20 µM was 51 to 75% on KRas G12D mutant protein, 25 to 50% in assay [1], 76 to 100% on Rac-1 and 51 to 75% at Rho-A.

As to `Oc1nc(-c2ccccn2)nc2scc(Br)c12` [drawing 3623], the inhibition at 20 µM on KRas G12D mutant protein lay in the range of 51 to 75%; in assay [1], 51 to 75%; on Rac-1, 76 to 100%; at Rho-A, 76 to 100%.

Consider `Oc1nc(-c2ccccn2)nc2sc3c(c12)CCNC3` [drawing 3723], for which the inhibition at 20 µM at KRas G12D mutant protein was 76 to 100%; in assay [1], 51 to 75%; on Rac-1, 76 to 100%; on Rho-A, 76 to 100%.

`O=C(CCn1ccnc1)Nc1nc(-c2ccccn2)nc2sccc12` [drawing 3761]: the inhibition at 20 µM on KRas G12D mutant protein is 76 to 100%; in assay [1], 51 to 75%; at Rac-1, 76 to 100%; on Rho-A, 76 to 100%.

For the compound `CN1CCN(c2nc(-c3ccccn3)nc3scc(C(=O)NCCc4cnc(O)nc4)c23)CC1` [drawing 3771], the inhibition at 20 µM on KRas G12D mutant protein lay within 51 to 75%; in assay [1], 25 to 50%; at Rac-1 it was 51 to 75%; on Rho-A, 51 to 75%.
